From the NIST ThermoML archive (doi:10.1016/j.fluid.2006.02.022)
Several values for one entry are separate records, joined by “and”; a condition that tells them apart may be missing. Equal values may be shown once. ± gives the expanded uncertainty stated by the source.

Assay: activity coefficient (dimensionless); of the first substance listed, at infinite dilution; xn = mol fraction of the nth substance listed
Details: 101 kPa, Liquid, Chromatography, x1 = 0

Row | Structure (SMILES) | activity coefficient (318.15 K) | activity coefficient (333.15 K) | activity coefficient (288.15 K) | activity coefficient (298.15 K) | activity coefficient (308.15 K)
1 | COC(C)(C)CC(C)(C)C [methyl 1,1,3,3-tetramethylbutyl ether] + O | 47100 and 126000 | 35500 and 76900 | – | – | –
2 | CCOC(C)(C)C [2-ethoxy-2-methylpropane] + O | 873 ± 82 | – | 325 ± 22 | 514 ± 35 | 659 ± 46
3 | c1ccsc1 [thiophene] + O | 1290 ± 110 | 1100 ± 100 | 1260 ± 100 | 1270 ± 96 | 1310 ± 100
4 | CCOC(C)(C)CC(C)(C)C [ethyl 1,1,3,3-tetramethylbutyl ether] + O | 126000 ± 27000 | 76900 ± 29000 | 111000 ± 9700 | 143000 ± 16000 | 149000 ± 23000
5 | CCC(C)(C)OC [2-methoxy-2-methylbutane] + O | 1070 ± 87 | – | 390 ± 39 | 529 ± 44 | 725 ± 55
6 | Cc1ccccc1 [toluene] + O | 8290 ± 880 | – | 8980 ± 950 | 8950 ± 950 | 8780 ± 930
7 | CCCS [1-propanethiol] + O | 1450 ± 150 | 1310 ± 160 | 1420 ± 110 | 1500 ± 120 | 1460 ± 130
8 | CCCCS [1-butanethiol] + O | 5340 ± 620 | 4140 ± 620 | 6030 ± 490 | 6040 ± 530 | 5830 ± 570
9 | CC(C)S [2-propanethiol] + O | 1130 ± 130 | – | 1120 ± 90 | 1140 ± 100 | 1190 ± 120
10 | CCOC(C)(C)CC [1,1-dimethylpropyl ethyl ether] + O | 3320 ± 350 | – | 1350 ± 100 | 1990 ± 140 | 2530 ± 190
11 | COC(C)(C)C [2-methoxy-2-methylpropane] + O | 234 ± 18 | – | 127 ± 13 | 139 ± 11 | 180 ± 14
